“And” between values parts separate entries of the source, which are not always exact repeats. Equal entries are not always repeated. Toxic doses and inconclusive results are not listed. Cut-off read from the data, not from the text of the source: active = T/C of 150% or more; inactive = T/C below 125%.
Tested on: L1210 leukemia ip in BDF1 mice, survival T/C
Assay: NCI In Vivo Anticancer Drug Screen. Data for tumor model L1210 Leukemia (intraperitoneal) in B6D2F1 (BDF1) mice
Conditions: endpoint: mean survival time, higher = longer survival
How it was run: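 Each compound was tested against a transplantable tumor grown in mice. The endpoint was survival, with treated animals benchmarked against vehicle controls as a simple ratio.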

[1] = dose: 50.0 mg/kg/injection, schedule: Q01DX009 (ip), vehicle: saline with Tween-80
[2] = dose: 100.0 mg/kg/injection, schedule: Q01DX001 (ip), vehicle: carboxymethylcellulose (CMC)
[3] = dose: 200.0 mg/kg/injection, schedule: Q01DX001 (ip), vehicle: carboxymethylcellulose (CMC)
[4] = dose: 400.0 mg/kg/injection, schedule: Q01DX001 (ip), vehicle: carboxymethylcellulose (CMC)
[5] = dose: 100.0 mg/kg/injection, schedule: Q01DX009 (ip), vehicle: Klucel (hydroxypropylcellulose) (HPC)
[6] = dose: 100.0 mg/kg/injection, schedule: Q04DX003 (ip), vehicle: Klucel (hydroxypropylcellulose) (HPC)
[7] = dose: 200.0 mg/kg/injection, schedule: Q04DX003 (ip), vehicle: Klucel (hydroxypropylcellulose) (HPC)
[8] = dose: 100.0 mg/kg/injection, schedule: Q01DX009 (ip), vehicle: saline with Tween-80
[9] = dose: 400.0 mg/kg/injection, schedule: Q04DX003 (ip), vehicle: Klucel (hydroxypropylcellulose) (HPC)
[10] = dose: 200.0 mg/kg/injection, schedule: Q01DX009 (ip), vehicle: Klucel (hydroxypropylcellulose) (HPC)
[11] = dose: 400.0 mg/kg/injection, schedule: Q01DX009 (ip), vehicle: Klucel (hydroxypropylcellulose) (HPC)

Measured: T/C

Cc1c(N=NN(C)C)c(=O)n(-c2ccccc2)n1C
inactive: dose: 18.0 mg/kg/injection, schedule: Q01DX001 (ip), vehicle: saline with Tween-80 100 % of control | dose: 18.0 mg/kg/injection, schedule: Q04DX003 (ip), vehicle: saline with Tween-80 107 % of control | dose: 25.0 mg/kg/injection, schedule: Q01DX009 (ip), vehicle: saline with Tween-80 105 % of control | dose: 37.0 mg/kg/injection, schedule: Q01DX001 (ip), vehicle: saline with Tween-80 116 % of control | dose: 37.0 mg/kg/injection, schedule: Q04DX003 (ip), vehicle: saline with Tween-80 108 % of control | [1] 114 % of control | dose: 75.0 mg/kg/injection, schedule: Q01DX001 (ip), vehicle: saline with Tween-80 119 % of control | dose: 75.0 mg/kg/injection, schedule: Q04DX003 (ip), vehicle: saline with Tween-80 112 % of control | dose: 100.0 mg/kg/injection, schedule: Q01DX001 (ip), vehicle: saline with Tween-80 97 % of control

CN(C)CCN1C(=O)CC(c2ccccc2)Sc2ccccc21 (stereo not drawn)
inactive: dose: 3.12 mg/kg/injection, schedule: Q01DX009 (ip), vehicle: saline 98 % of control | dose: 6.25 mg/kg/injection, schedule: Q01DX009 (ip), vehicle: saline 118 % of control | dose: 12.5 mg/kg/injection, schedule: Q01DX009 (ip), vehicle: saline 101 % of control | dose: 25.0 mg/kg/injection, schedule: Q01DX009 (ip), vehicle: saline 107 % of control | dose: 25.0 mg/kg/injection, schedule: Q04DX003 (ip), vehicle: saline 102 % of control | dose: 50.0 mg/kg/injection, schedule: Q01DX009 (ip), vehicle: saline 113 % of control | dose: 50.0 mg/kg/injection, schedule: Q04DX003 (ip), vehicle: saline 113 % of control

COc1cc2c(cc1OC)C13CCN4C=C5CCOC6CC(=O)N2C1C6C5CC43 (stereo not drawn)
inactive: dose: 75.0 mg/kg/injection, schedule: Q01DX001 (ip), vehicle: other 96 % of control

O=C(O)c1cc(Br)ccc1O
inactive: dose: 100.0 mg/kg/injection, schedule: Q04DX002 (ip), vehicle: Klucel (hydroxypropylcellulose) (HPC) 98 % of control | dose: 200.0 mg/kg/injection, schedule: Q04DX002 (ip), vehicle: Klucel (hydroxypropylcellulose) (HPC) 98 % of control | dose: 400.0 mg/kg/injection, schedule: Q04DX002 (ip), vehicle: Klucel (hydroxypropylcellulose) (HPC) 102 % of control

CC(C)(O)CC1=C(O)c2ccccc2C(=O)C1=O
inactive: dose: 50.0 mg/kg/injection, schedule: Q01DX001 (ip), vehicle: carboxymethylcellulose (CMC) 105 % of control | [2] 97 % of control | [3] 105 % of control | [4] 105 % of control

CSC(=S)N(C)C
inactive: dose: 25.0 mg/kg/injection, schedule: Q01DX009 (ip), vehicle: Klucel (hydroxypropylcellulose) (HPC) 90 % of control | dose: 50.0 mg/kg/injection, schedule: Q01DX009 (ip), vehicle: Klucel (hydroxypropylcellulose) (HPC) 108 % of control | [5] 97 % of control and 102 % of control | [6] 100 % of control | [7] 93 % of control

O=S(=O)(F)c1cc(Cl)cc(Cl)c1O
inactive: dose: 100.0 mg/kg/injection, schedule: Q04DX002 (ip), vehicle: other 93 % of control | dose: 200.0 mg/kg/injection, schedule: Q04DX002 (ip), vehicle: other 93 % of control | dose: 400.0 mg/kg/injection, schedule: Q04DX002 (ip), vehicle: other 104 % of control

COc1ccc(C=NC(C)(C)CO)c(OC)c1
inactive: dose: 75.0 mg/kg/injection, schedule: Q01DX001 (ip), vehicle: saline 96 % of control | dose: 150.0 mg/kg/injection, schedule: Q01DX001 (ip), vehicle: saline 101 % of control

c1ccc(-c2nnc3oc(-c4ccco4)nn23)cc1
inactive: [8] 100 % of control | dose: 100.0 mg/kg/injection, schedule: Q04DX003 (ip), vehicle: saline with Tween-80 96 % of control | dose: 200.0 mg/kg/injection, schedule: Q01DX009 (ip), vehicle: saline with Tween-80 101 % of control | dose: 200.0 mg/kg/injection, schedule: Q04DX003 (ip), vehicle: saline with Tween-80 102 % of control | dose: 400.0 mg/kg/injection, schedule: Q01DX009 (ip), vehicle: saline with Tween-80 101 % of control | dose: 400.0 mg/kg/injection, schedule: Q04DX003 (ip), vehicle: saline with Tween-80 94 % of control

CCN=C(c1ccc(NC(=O)c2ccc(C(=O)Nc3ccc(C(=NCC)N(CC)CC)cc3)cc2)cc1)N(CC)CC
inactive: dose: 0.94 mg/kg/injection, schedule: Q01DX Z (ip), vehicle: carboxymethylcellulose (CMC) 94 % of control | dose: 1.87 mg/kg/injection, schedule: Q01DX Z (ip), vehicle: carboxymethylcellulose (CMC) 95 % of control

COc1cc(/C=N/NC(=O)N/N=C/c2cc(OC)c(OC)c(OC)c2)cc(OC)c1OC
inactive: [6] 105 % of control | [7] 105 % of control | [9] 108 % of control

CSc1nc(N)c(N=Nc2ccc(S(=O)(=O)Nc3occ(C)c3C)cc2)c(=O)[nH]1
inactive: [2] 97 % of control | [3] 92 % of control | [4] 94 % of control

CCOCCc1ccccn1
inactive: dose: 100.0 mg/kg/injection, schedule: Q01DX009 (ip), vehicle: saline 113 % of control | dose: 100.0 mg/kg/injection, schedule: Q04DX003 (ip), vehicle: saline 103 % of control | dose: 200.0 mg/kg/injection, schedule: Q01DX009 (ip), vehicle: saline 100 % of control | dose: 200.0 mg/kg/injection, schedule: Q04DX003 (ip), vehicle: saline 103 % of control | dose: 400.0 mg/kg/injection, schedule: Q01DX009 (ip), vehicle: saline 96 % of control | dose: 400.0 mg/kg/injection, schedule: Q04DX003 (ip), vehicle: saline 101 % of control

O=C1NCCc2cc3c(cc21)OCO3
inactive: dose: 25.0 mg/kg/injection, schedule: Q04DX002 (ip), vehicle: saline 97 % of control | dose: 50.0 mg/kg/injection, schedule: Q04DX002 (ip), vehicle: saline 106 % of control | dose: 100.0 mg/kg/injection, schedule: Q04DX002 (ip), vehicle: saline 103 % of control

N#Cc1cccc(C(=O)Cl)c1
inactive: dose: 25.0 mg/kg/injection, schedule: Q01DX009 (ip), vehicle: carboxymethylcellulose (CMC) 95 % of control and 96 % of control | dose: 50.0 mg/kg/injection, schedule: Q01DX009 (ip), vehicle: carboxymethylcellulose (CMC) 100 % of control and 89 % of control | [2] 92 % of control | dose: 100.0 mg/kg/injection, schedule: Q01DX009 (ip), vehicle: carboxymethylcellulose (CMC) 92 % of control and 95 % of control and 96 % of control | dose: 100.0 mg/kg/injection, schedule: Q04DX002 (ip), vehicle: carboxymethylcellulose (CMC) 95 % of control and 89 % of control | dose: 100.0 mg/kg/injection, schedule: Q04DX003 (ip), vehicle: carboxymethylcellulose (CMC) 96 % of control and 100 % of control | [3] 92 % of control and 98 % of control | dose: 200.0 mg/kg/injection, schedule: Q04DX002 (ip), vehicle: carboxymethylcellulose (CMC) 95 % of control | dose: 200.0 mg/kg/injection, schedule: Q04DX003 (ip), vehicle: carboxymethylcellulose (CMC) 96 % of control and 100 % of control | dose: 400.0 mg/kg/injection, schedule: Q04DX003 (ip), vehicle: carboxymethylcellulose (CMC) 91 % of control

CCS(=O)(=O)/C=C(\C(=O)c1ccccc1)c1ccccc1
inactive: [5] 98 % of control | [10] 97 % of control | [11] 93 % of control

Clc1ccc(N=Nc2ccccc2)cc1
inactive: [5] 98 % of control | [6] 95 % of control | [10] 91 % of control | [7] 101 % of control | [11] 96 % of control | [9] 105 % of control

Cc1ccc2nc3c(cc(F)c4ccccc43)c(C)c2c1
inactive: [1] 105 % of control | [8] 87 % of control

Source: PubChem BioAssay AID248 (DTP/NCI, 2004)
